Patent publication US12312599B2, “Methods, compositions, and kits for producing beige adipocytes and treating metabolic disorders” (MaineHealth, priority 2018, dated 2025)

Legend:
Assay type in all cases: cell-based, human
[1] = tested on: FD-MSCs; test: BODIPY lipid stain of FD-MSCs during adipogenic differentiation
Protocol: All assays were performed between 7 and 15 passages. For osteocyte differentiation, mature MSCs were grown in 24 well culture plates to 100% confluency in MesenCult-ACF and induced to differentiate in OsteoLife Complete Osteogenesis Medium (Lifeline Cell Technology) for 21 days prior to staining with Lifeline Alizarin Red Stain to visualize calcium deposition. For chondrocyte differentiation. For beige adipogenic precursor generation, cells were grown in 24 well culture plates to 90% confluence and treated with 5 uM SB413542 (Sigma) and 10 nM human IL-4 (Peprotech) for 2 days. For beige adipogenic induction, adipogenic precursors are differentiated for 3 days with adipogenic medium consisting of T3 (2 nM), insulin (170 nM), rosiglitazone (1 μM), SB413542 (5 uM), IBMX (0.5 mM), dexamethasone (5 μM) and indomethacin (125 μM) in EGM-2 medium (Lonza) supplemented with the BulletKit minus FGF2 (modified from^33). Thereafter, cells are maintained in adipogenic medium without IBMX, dexamethasone and indomethacin. The medium was changed every 3 days and adipocytes were fully differentiated by 9-12 days as determined by lipid accumulation and peak expression of UCP1. Cell Isolation, Expansion and Differentiation of Interscapular Brown Adipose Tissue Preadipocytes • 1. Prior to adipose cell isolation, warm DMEM, FBS and cell wash buffer to room temperature. • 2. In a laminar flow cabinet for cell culture, place 5 g of adipose tissue on a 100×20 mm dish. Suspend tissue in 1 mL of Adipose Tissue Dissociation Kit enzyme digest cocktail and finely mince with a razorblade. • 3. […] Incubate tube at 37° C. on a rotating nutator for 30 minutes. During incubation period, briefly vortex sample for 5 s in 10-minute intervals. • 5. Transfer cells to a 15 mL tube and add 5 mL of DMEM. Filter cell suspension through a 100 μm strainer into a new 15 mL tube and centrifuge at 300 g for 5 minutes to form a pellet. • 6. Remove supernatant and leave behind […] of DMEM. Resuspend cell pellet in 10 mL of DMEM containing 10% FBS and plate in a 100×20 mm dish for expansion. Agitate plate to spread cells evenly on well surface and incubate plate at 37° C. in a 5% CO2 incubator undisturbed. Change 100% of medium every day. • 7. Upon 80% confluence, split and passage cells at a ratio of 1:6. • 8. Prepare for passage by warming cell wash buffer and cell culture medium (DMEM containing 10% FBS) to room temperature. Warm TrypLE dissociation reagent to 37° C. • 9. Aspirate cell culture medium from wells and wash once with PBS. Remove PBS and add 500 μL of pre-warmed TrypLE reagent to each well of a 6 well plate. Scale TrypLE amount for larger tissue culture plates accordingly. • 10. Incubate culture plate at 37° C. for 5 minutes. […]

[2] = tested on: SMAD2; test: Western blot of phosphorylated SMAD2 in FD-MSCs; conditions: SB pretreatment 2 days in MesenCult-ACF
Protocol: All assays were performed between 7 and 15 passages. For osteocyte differentiation, mature MSCs were grown in 24 well culture plates to 100% confluency in MesenCult-ACF and induced to differentiate in OsteoLife Complete Osteogenesis Medium (Lifeline Cell Technology) for 21 days prior to staining with Lifeline Alizarin Red Stain to visualize calcium deposition. For chondrocyte differentiation. For beige adipogenic precursor generation, cells were grown in 24 well culture plates to 90% confluence and treated with 5 uM SB413542 (Sigma) and 10 nM human IL-4 (Peprotech) for 2 days. For beige adipogenic induction, adipogenic precursors are differentiated for 3 days with adipogenic medium consisting of T3 (2 nM), insulin (170 nM), rosiglitazone (1 μM), SB413542 (5 uM), IBMX (0.5 mM), dexamethasone (5 μM) and indomethacin (125 μM) in EGM-2 medium (Lonza) supplemented with the BulletKit minus FGF2 (modified from^33). Thereafter, cells are maintained in adipogenic medium without IBMX, dexamethasone and indomethacin. The medium was changed every 3 days and adipocytes were fully differentiated by 9-12 days as determined by lipid accumulation and peak expression of UCP1. […] SWATH runs were extracted and analyzed using PeakView software and MarkerView software was utilized to find statistically relevant relationships through t test comparisons. […]

[3] = tested on: FD-MSCs; test: UCP1 expression time course of FD-MSCs during adipogenic differentiation
Protocol: All assays were performed between 7 and 15 passages. For osteocyte differentiation, mature MSCs were grown in 24 well culture plates to 100% confluency in MesenCult-ACF and induced to differentiate in OsteoLife Complete Osteogenesis Medium (Lifeline Cell Technology) for 21 days prior to staining with Lifeline Alizarin Red Stain to visualize calcium deposition. For chondrocyte differentiation. For beige adipogenic precursor generation, cells were grown in 24 well culture plates to 90% confluence and treated with 5 uM SB413542 (Sigma) and 10 nM human IL-4 (Peprotech) for 2 days. For beige adipogenic induction, adipogenic precursors are differentiated for 3 days with adipogenic medium consisting of T3 (2 nM), insulin (170 nM), rosiglitazone (1 μM), SB413542 (5 uM), IBMX (0.5 mM), dexamethasone (5 μM) and indomethacin (125 μM) in EGM-2 medium (Lonza) supplemented with the BulletKit minus FGF2 (modified from^33). Thereafter, cells are maintained in adipogenic medium without IBMX, dexamethasone and indomethacin. The medium was changed every 3 days and adipocytes were fully differentiated by 9-12 days as determined by lipid accumulation and peak expression of UCP1. Cell Isolation, Expansion and Differentiation of Interscapular Brown Adipose Tissue Preadipocytes • 1. Prior to adipose cell isolation, warm DMEM, FBS and cell wash buffer to room temperature. • 2. […]

[4] = SB throughout the adipogenic differentiation period, day 12

Structure (SMILES): NC(=O)c1ccc(-c2nc(-c3ccc4c(c3)OCO4)c(-c3ccccn3)[nH]2)cc1 [SB, SB431542]
- lipid accumulation ([1]; SB for 2 days before and throughout the 12-day adipogenic differentiation): greatest amount of lipid accumulation
- additional increase in lipid droplet staining ([1]; SB prior to and during differentiation, versus SB during differentiation alone): 45%
- cells in culture with lipid content [1, 4]: approximately 50%
- increase in lipid content [1, 4]: 5 fold
- constitutive phosphorylation of SMAD2 [2]: inhibited
- shift of the peak of UCP1 expression (earlier) ([3]; additional SB pretreatment prior to adipogenic differentiation): 3 days
- UCP1 gene expression (qPCR) ([3]; differentiated in the presence of SB): large increase
